Assay [1] deals with Staphylococcus aureus AB94004. As to the kind of experiment: MIC, broth microdilution. Format: cell-based. The settings on record: legend of Figure 6. On the procedure:
The antimicrobial activity was determined via a broth microdilution assay according to the procedure recommended by the Clinical and Laboratory Standards Institute with some modifications ([Hou et al., 2011]; [Li et al., 2016]). Bacteria were cultured in Luria-Bertani (LB) broth to OD600 = 0.6 at 37°C, then diluted to 10^5–10^6 CFU/mL in LB medium. Peptides were serially double diluted to a gradient concentration range from 48.3 to 1.5 μM in physiological saline. Eighty microliters of the bacterial suspension and 20 μL of diluted peptide at varying concentrations were added to 96-well plates, and then incubated for 16–18 h at 37°C with continuous shaking at 250 rpm. The antimicrobial activity of ampicillin and kanamycin were also tested as positive controls. Experiments were performed in triplicate. The minimum inhibitory concentration (MIC) was determined as the lowest peptide concentration at which no bacterial growth was observed.
(In general: Broth dilution looks for growth in wells or tubes with falling amounts of substance.)

The test system of assay [2] is Staphylococcus aureus ATCC25923. The settings on record: comparison values; ref Zeng et al., 2004, 2012; Cao et al., 2012a; cited from earlier work. From the text:
Table 1 In Vitro antimicrobial activities of marcin-18 and its homologs compared with other peptides and antibiotics. | column: MIC (μM) / BmKn2; MIC (μM) / Kana

Assay [3] has as its system Bacillus subtilis AB91021. The settings on record: comparison values; ref Zeng et al., 2004, 2012; Cao et al., 2012a; cited from earlier work. From the text:
Table 1 In Vitro antimicrobial activities of marcin-18 and its homologs compared with other peptides and antibiotics. | column: MIC (μM) / BmKn2; MIC (μM) / BmKb1; MIC (μM) / Kana

Assay [4] has as its system Escherichia coli ATCC25922. Particulars: comparison values; ref Zeng et al., 2004, 2012; Cao et al., 2012a; cited from earlier work. From the text:
(§1) Table 1 In Vitro antimicrobial activities of marcin-18 and its homologs compared with other peptides and antibiotics. | column: MIC (μM) / BmKn2; MIC (μM) / Amp; MIC (μM) / Kana

In assay [5] the test system is Staphylococcus aureus AB94004. Particulars: comparison values; ref Zeng et al., 2004, 2012; Cao et al., 2012a; cited from earlier work.
Source text: as §1

In brackets after ≈: the same amount, converted by molar mass.

With `NC[C@H]1O[C@H](O[C@H]2[C@H](O)[C@@H](O[C@H]3O[C@H](CO)[C@@H](O)[C@H](N)[C@H]3O)[C@H](N)C[C@@H]2N)[C@H](O)[C@@H](O)[C@@H]1O` [Kana, kanamycin], in assay [1], the “MIC of control substances” value turned out to be 5.4 µM. Also, the MIC in assay [2] is 10.7 µM (≈ 5.18 µg/mL); in assay [3], 42.9 µM (≈ 20.8 µg/mL); in assay [4] it was 21.5 µM (≈ 10.4 µg/mL); in assay [5], 5.4 µM (≈ 2.62 µg/mL).

In general, MIC refers to the lowest concentration found to suppress growth.

The record behind these values is article PMC5987058, “Therapeutic Potential of a Scorpion Venom-Derived Antimicrobial Peptide and Its Homologs Against Antibiotic-Resistant Gram-Positive Bacteria” (Frontiers in Microbiology, 2018).
